Source: paper PMC12769565, “Design, synthesis and biological activity of glycoconjugated ADAMTS5 exosite inhibitors: applications in osteoarthritis and ovarian cancer models” (Scientific Reports, 2025)

Tests used:
Assay type in all cases: biochemical
ADAMTS5 [1] = molecular target: T1, ADAMTS5 (Homo sapiens, UniProt Q9UNA0); test: QF peptide cleavage assay (peptidolytic activity); conditions: 100 µM; compared to DMSO control
T1 construct: Human recombinant full-length FLAG-tagged ADAMTS4 and ADAMTS5 were expressed in HEK293T cells; FLAG; made in house; host or cells: HEK293T cells
T1 sequence (Q9UNA0 262-930): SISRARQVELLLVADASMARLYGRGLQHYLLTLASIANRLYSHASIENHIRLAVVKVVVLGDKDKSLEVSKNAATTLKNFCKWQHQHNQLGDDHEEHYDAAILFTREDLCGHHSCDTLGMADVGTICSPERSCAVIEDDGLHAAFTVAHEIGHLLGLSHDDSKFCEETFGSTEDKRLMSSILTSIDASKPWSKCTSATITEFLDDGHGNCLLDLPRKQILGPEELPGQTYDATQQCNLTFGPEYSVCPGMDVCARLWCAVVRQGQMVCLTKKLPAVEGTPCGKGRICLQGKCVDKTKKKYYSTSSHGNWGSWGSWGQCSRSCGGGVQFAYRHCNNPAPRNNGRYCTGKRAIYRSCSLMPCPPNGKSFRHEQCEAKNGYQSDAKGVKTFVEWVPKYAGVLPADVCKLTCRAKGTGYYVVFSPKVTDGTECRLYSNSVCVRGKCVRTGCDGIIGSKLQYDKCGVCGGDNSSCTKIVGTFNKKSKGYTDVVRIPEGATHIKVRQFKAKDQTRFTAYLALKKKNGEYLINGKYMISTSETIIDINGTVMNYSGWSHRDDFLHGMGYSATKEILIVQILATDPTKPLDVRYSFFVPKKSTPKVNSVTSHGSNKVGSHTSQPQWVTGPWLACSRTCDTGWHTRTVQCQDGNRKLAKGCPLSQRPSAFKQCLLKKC
Description: (§1) Human recombinant full-length FLAG-tagged ADAMTS4 and ADAMTS5 were expressed in HEK293T cells (Thermo Fisher Scientific) and purified by anti-FLAG immunoaffinity chromatography as before. Concentrations of active proteases were determined by active-site titrations with known concentrations of TIMP-3 (Bio-Techne, 973-TM-010), using QF peptides as substrates. V1-5GAG, a truncated version of versican V1 isoform comprising residues 21–694 and containing a C-terminal 6x His tag[67], was expressed in HE293T cells and purified by immobilized metal affinity chromatography as before.
(§2) QF peptide cleavage assays were conducted in TNC-B (50 mM Tris–HCl, pH 7.5, 150 mM NaCl, 10 mM CaCl2, and 0.02% NaN3) on a SpectraMax i3x Multi-Mode Platform (Molecular Devices, UK) in a total volume of 20 µl at 37℃ as before. ADAMTS4 (3.5 nM) or ADAMTS5 (4 nM) were incubated with compounds 1–4 (100 µM, diluted in TNC-B from 10 mM DMSO stocks) or DMSO for 1 h at 37 ℃ before addition of QF peptides fluorescein-5(6)-carbonyl-[…]N, N,N0,N0-tetramethyl-6-carboxyrhodamine, and fluorescein-5(6)-carbonyl-Thr-Glu-Ser-Glu - […]N, N,N0,N0-tetramethyl-6-carboxyrhodamine, respectively, each at 40 µM. Fluorescence intensity was recorded with an excitation wavelength of 485 nm and an emission wavelength of 535 nm every min for 2 h, expressed as relative fluorescence units and normalized against a blank containing only buffer and substrate. Fluorescence values were converted into residual activity by fixing as 100% the activity of the reactions containing an equal concentration (v/v) of DMSO instead of compound (DMSO control).

ADAMTS4 [2] = molecular target: T2, ADAMTS4 (Homo sapiens, UniProt O75173); test: QF peptide cleavage assay (peptidolytic activity); conditions: compared to DMSO control
T2 construct: Human recombinant full-length FLAG-tagged ADAMTS4 and ADAMTS5 were expressed in HEK293T cells; FLAG; made in house; host or cells: HEK293T cells
T2 sequence (O75173 213-837): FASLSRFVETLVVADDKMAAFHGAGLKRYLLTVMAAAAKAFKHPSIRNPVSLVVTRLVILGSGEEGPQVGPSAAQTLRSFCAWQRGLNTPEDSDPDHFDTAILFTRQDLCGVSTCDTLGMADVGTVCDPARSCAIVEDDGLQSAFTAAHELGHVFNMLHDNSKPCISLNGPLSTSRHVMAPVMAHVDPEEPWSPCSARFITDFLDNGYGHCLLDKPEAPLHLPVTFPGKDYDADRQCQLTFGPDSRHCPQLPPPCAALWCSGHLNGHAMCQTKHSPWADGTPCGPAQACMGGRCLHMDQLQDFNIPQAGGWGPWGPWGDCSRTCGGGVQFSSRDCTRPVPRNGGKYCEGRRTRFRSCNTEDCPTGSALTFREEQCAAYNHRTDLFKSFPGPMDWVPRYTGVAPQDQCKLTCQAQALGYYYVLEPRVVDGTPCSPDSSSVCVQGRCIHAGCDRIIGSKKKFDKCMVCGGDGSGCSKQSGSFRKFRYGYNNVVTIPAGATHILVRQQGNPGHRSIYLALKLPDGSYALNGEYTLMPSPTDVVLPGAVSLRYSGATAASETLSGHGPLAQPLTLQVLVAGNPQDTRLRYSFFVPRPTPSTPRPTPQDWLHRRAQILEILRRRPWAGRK
Description: as §1, §2

ADAMTS5 [3] = molecular target: T1, ADAMTS5; test: Aggrecanase assay (bovine aggrecan, anti-ARGSV neoepitope immunoblot); conditions: 100 µM
Description: Aggrecanase assays were carried out as before. ADAMTS5 (1 nM) was incubated with compounds 2 and 3 or DMSO for 2 h at 37 °C in TNC-B buffer before addition of bovine articular aggrecan (UniProt ID: P13608, 270 nM) (Merck, A1960). After 2 h digestion at 37 °C, the reactions were stopped with ethylenediaminetetraacetic acid and the samples incubated with 0.1 U/ml of chondroitinase ABC (AMS Biotechnology, Abingdon, UK) and keratanase (endo-beta galactosidase, Merck, G6920) in deglycosylation buffer (50 mM sodium acetate, 25 mM Tris HCl pH 8.0) for 16 h at 37 °C to remove GAG chains.
Samples were separated by SDS-PAGE under reducing conditions (5% β-mercaptoethanol) on BOLT, 4–12%, Bis-Tris Gels (Invitrogen) in MES Running Buffer (NuPAGE). Proteins were transferred onto a nitrocellulose membrane using Trans-Blot Turbo™ Transfer System (BioRad), at 25 V, 2.5 A for 30 min. Membranes were blocked with 3% BSA/PBS for 1 h at room temperature. Aggrecan fragments generated by ADAMTS cleavage at E^392-A^393[8] or E^1953-A^1954[68] were detected using mouse monoclonal anti-ARGSV antibody (BC3, Life Technologies, MA3-16888, 4 µg/ml) or polyclonal anti-AGEG neoepitope antibody (serum, 1:200 dilution)[12],[33], respectively, followed by the appropriate horseradish peroxidase (HRP)-conjugated secondary antibodies (polyclonal Goat Anti-Mouse P0447, 0.1 ng/µl and polyclonal Goat Anti-Rabbit, P0448, 0.03 ng/µl, both from Agilent Technologies LDA UK Ltd). All antibodies were diluted in 0.5% bovine serum albumin (BSA)/PBS. Washes between each step were carried out in triplicate, for 15 min each, with PBS-Tween (0.1%). Following addition of the chemiluminescent HRP substrate (Millipore, WBKL30500) membranes were imaged using Bio-Rad Chemidoc Touch Imaging System. Analysis was carried out using BioRad ImageLab software (version 5.2.1) using sequential exposures to avoid saturation artifacts. Figures for unprocessed blots are included in Supplementary information Fig. S4 and Fig. S5 with highlighted regions (in red boxes) corresponding to the data reported in the main manuscript figures.

ADAMTS4 [4] = molecular target: T2, ADAMTS4; test: Versicanase assay (V1-5GAG, versikine sandwich ELISA); conditions: compared to DMSO control
Description: as §1
Compounds 1–4 (100 µM) or DMSO were incubated with ADAMTS4 (5 nM) or ADAMTS5 (0.4 nM) for 2 h at 37 °C, before addition of V1-5GAG (50 nM). At each time point, reactions were stopped by addition of ethylenediaminetetraacetic acid and ADAMTS-generated versican fragments (versikine) quantified by sandwich ELISA as before[29],[30],[38] using anti-DPEAAE neoepitope antibody (Life Technologies, PA1-1748 A, 5 µg/ml) and polyclonal anti-versican antibody (Abcam, ab171887, 3 µg/ml). For each reaction, the amount of versikine generated was derived from a standard curve (0–1.56 nM) of V1-5GAG completely digested with ADAMTS5. Initial velocities were calculated from the concentration of versikine generated as a function of reaction time. Percent of inhibition was calculated from the DMSO control reactions. IC50 values were determined using the formula: vi/v0 = 1/(1 + [I]/IC50) where vi is the initial velocity of substrate cleavage in the presence of the inhibitor at concentration [I] and v0 is the initial velocity in the presence of an equal concentration (v/v) of DMSO.

SMILES: CCC(C)N(Cc1cn(CCCO[C@@H]2O[C@H](CO[C@@H]3O[C@H](CO)[C@H](O)[C@H](O)[C@H]3O)[C@@H](O)[C@H](O)[C@H]2NC(C)=O)nn1)S(=O)(=O)c1ccc(-c2ccccc2)cc1 (stereo partly drawn) [compound 3, N-((2R,3R,4R,5 S,6R)-2-(3-(4-((N-(sec-butyl)-[1,1’-biphenyl]-4-sulfonamido)methyl)-1 H-1,2,3-triazol-1-yl)propoxy)-4,5-dihydroxy-6-((((2R,3R,4 S,5R,6R)-3,4,5-trihydroxy-6-(hydroxymethyl)tetrahydro-2 H-pyran-2-yl)oxy)methyl)tetrahydro-2 H-pyran-3-yl)acetamide]
- inhibition of ADAMTS5 peptidolytic activity (ADAMTS5 [1]): significant inhibition
- inhibition at 100 µM (ADAMTS4 [2]): 48%
- inhibition of ADAMTS5 aggrecanase activity (ADAMTS5 [3]): ineffective
- inhibition at 100 µM (ADAMTS4 [4]): 42%
